Measured values reported in the supplement of paper PMC11061612.

Columns and labels:
J82 (Bladder Carcinoma) = test: Bliss excess, mean over the matrix (fraction); higher = more synergy
Outline: (§1)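 After 24 hours at 37°C and 5% CO2 in 1536-well plates, cells in DMEM/F12 or RPMI plus 10% FBS received two-drug dose matrices for 72 hours. Viability came from CellTiter-Glo 2.0 luminescence and was scaled as inhibition, anchored at 0 by vehicle wells and at 1 by blank wells. Combination Emax is taken as the second-highest inhibition in the matrix, and Bliss excess as the observed combination effect less EA + EB − EA·EB, with EA and EB the single-agent effects.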

[1] = tested on: OCI-AML2 (Acute Myeloid Leukemia); test: as above
Outline: as §1

[2] = tested on: COR-L95 (Small Cell Lung Carcinoma); test: as above
Outline: as §1

ES7 (Ewing's Sarcoma) [3] = test: as above
Outline: as §1

[4] = tested on: SW1990 (Pancreatic Carcinoma); test: as above
Outline: as §1

[5] = tested on: SW1783 (Low Grade Glioma); test: as above
Outline: as §1

[6] = tested on: TGBC24TKB (Biliary Tract Carcinoma); test: as above
Outline: as §1

[7] = tested on: KARPAS-1106P (B-Cell Non-Hodgkin's Lymphoma); test: as above
Outline: as §1

[8] = tested on: DB (B-Cell Non-Hodgkin's Lymphoma); test: as above
Outline: as §1

[9] = tested on: NCI-H1694 (Small Cell Lung Carcinoma); test: as above
Outline: as §1

NCI-H2369 (Mesothelioma) = test: as above
Outline: as §1

[10] = tested on: U-266 (Plasma Cell Myeloma); test: combination Emax (second highest fraction inhibited in the dose matrix, 72 h); higher = more inhibition; extreme values may be limits of the assay
Outline: as §1

ES7 (Ewing's Sarcoma) [11] = test: as above
Outline: as §1

[12] = tested on: TE-5 (Esophageal Squamous Cell Carcinoma); test: as above
Outline: as §1

[13] = tested on: EM-2 (Chronic Myelogenous Leukemia); test: as above
Outline: as §1

[14] = tested on: SUIT-2 (Pancreatic Carcinoma); test: as above
Outline: as §1

[15] = tested on: KARPAS-620 (Plasma Cell Myeloma); test: as above
Outline: as §1

[16] = tested on: KARPAS-1106P (B-Cell Non-Hodgkin's Lymphoma); test: as above
Outline: as §1

RH-1 (Ewing's Sarcoma) = test: as above
Outline: as §1

[17] = tested on: NCI-H1694 (Small Cell Lung Carcinoma); test: as above
Outline: as §1
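Throughout, for Bliss excess, mean over the matrix: after 72 h of two-drug dosing.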

Row | Compound | Bliss excess (J82 (Bladder Carcinoma)) | Bliss excess [1] | Bliss excess [2] | Bliss excess (ES7 (Ewing's Sarcoma) [3]) | Bliss excess [4] | Bliss excess [5] | Bliss excess [6] | Bliss excess [7] | Bliss excess [8] | Bliss excess [9] | Bliss excess (NCI-H2369 (Mesothelioma)) | combination Emax [10] | combination Emax (ES7 (Ewing's Sarcoma) [11]) | combination Emax [12] | combination Emax [13] | combination Emax [14] | combination Emax [15] | combination Emax [16] | combination Emax (RH-1 (Ewing's Sarcoma)) | combination Emax [17]
1 | COc1cccc2c1C(=O)c1c(O)c3c(c(O)c1C2=O)C[C@@](O)(C(=O)CO)C[C@@H]3O[C@H]1C[C@H](N)[C@H](O)[C@H](C)O1 [Doxorubicin] + Cc1cc2ncnn2cc1Nc1ncc2c(n1)n(C1CCOCC1)c(=O)n2C [AZD7648] (first compound max 1 µM, 7x7, partner max 10 µM) | 0.0106 | 0.0125 | 0.0084 | 0.0997 | -0.0224 | 0.0262 | -0.002 | 0.0713 | 0.0888 | 0.12 | 0.029 | 0.612 | 1 | 0.678 | 0.978 | 0.646 | 0.681 | 0.988 | 1 | 0.921
2 | Cc1c2c(nn1C)CSCc1cc(n(C)n1)CSc1cc(c3ccccc3c1)OCCCc1c(C(=O)O)n(C)c3c-2c(Cl)ccc13 [AZD5991] + CC1(C)CCC(CN2CCN(c3ccc(C(=O)NS(=O)(=O)c4ccc(NCC5CCOCC5)c([N+](=O)[O-])c4)c(Oc4cnc5[nH]ccc5c4)c3)CC2)=C(c2ccc(Cl)cc2)C1 [Venetoclax] (first compound max 1 µM, 7x7, partner max 1 µM) | -0.0232 | 0.143 | 0.0616 | 0.102 | -0.0317 | -0.0164 | -0.0051 | -0.0146 | 0.185 | 0.076 | -0.0027 | 0.97 | 0.893 | 0.525 | 0.975 | 0.209 | 1 | 0.935 | 0.766 | 0.988
3 | CCc1c2c(nc3ccc(O)cc13)-c1cc3c(c(=O)n1C2)COC(=O)[C@]3(O)CC [SN-38] + CN(C)CCCOc1ccc(-c2ccc3ncc4c(c3c2)n(C2CCOCC2)c(=O)n4C)cn1 [AZD0156] (first compound max 0.3 µM, 7x7, partner max 1 µM) | -0.0299 | 0.0764 | -0.0989 | 0.0565 | -0.0091 | -0.039 | 0.0476 | -0.0346 | -0.0305 | -0.0333 | -0.0001 | 0.482 | 1 | 0.796 | 0.985 | 0.744 | 0.437 | 0.901 | 1 | 0.968
4 | COc1nnc2ccc(N3CCC(c4ccc(OCCN5CCN(C)C(=O)[C@H]5C)cc4)CC3)nn12 [AZD5153] + Cn1cnc2c(F)c(Nc3ccc(Br)cc3Cl)c(C(=O)NOCCO)cc21 [Selumetinib] (first compound max 1 µM, 7x7, partner max 10 µM) | 0.014 | 0.0311 | -0.0561 | -0.0502 | -0.0209 | -0.0214 | 0.158 | 0.013 | 0.0093 | -0.0641 | -0.048 | 0.542 | 0.549 | 0.429 | 0.992 | 0.558 | 0.99 | 0.699 | 0.315 | 0.234
5 | CC1(C)CCC(CN2CCN(c3ccc(C(=O)NS(=O)(=O)c4ccc(NCC5CCOCC5)c([N+](=O)[O-])c4)c(Oc4cnc5[nH]ccc5c4)c3)CC2)=C(c2ccc(Cl)cc2)C1 [Venetoclax] + Cn1cnc2c(F)c(Nc3ccc(Br)cc3Cl)c(C(=O)NOCCO)cc21 [Selumetinib] (first compound max 1 µM, 7x7, partner max 3 µM) | -0.028 | 0.014 | -0.0265 | -0.0127 | -0.0656 | -0.0595 | -0.0103 | -0.0009 | -0.0192 | -0.0313 | -0.0308 | 0.722 | 0.7 | 0.107 | 0.424 | 0.26 | 1 | 0.476 | 0.0877 | 0.324
6 | CN(C)CCCOc1ccc(-c2ccc3ncc4c(c3c2)n(C2CCOCC2)c(=O)n4C)cn1 [AZD0156] + C=CCn1c(=O)c2cnc(Nc3ccc(N4CCN(C)CC4)cc3)nc2n1-c1cccc(C(C)(C)O)n1 [AZD1775] (first compound max 1 µM, partner max 1 µM) | -0.0194 | -0.0258 | -0.107 | -0.0153 | -0.0358 | -0.0624 | -0.0224 | -0.0384 | -0.0119 | -0.0303 | -0.0266 | 0.737 | 0.542 | 0.352 | 0.902 | 0.619 | 0.511 | 0.874 | 1 | 0.367
7 | Cc1cc2ncnn2cc1Nc1ncc2c(n1)n(C1CCOCC1)c(=O)n2C [AZD7648] + C=CCn1c(=O)c2cnc(Nc3ccc(N4CCN(C)CC4)cc3)nc2n1-c1cccc(C(C)(C)O)n1 [AZD1775] (first compound max 10 µM, partner max 1 µM) | -0.008 | -0.0039 | -0.0543 | -0.0044 | -0.0255 | 0.0078 | 0.0098 | -0.0202 | -0.0984 | -0.0234 | 0.0034 | 0.697 | 0.541 | 0.515 | 0.964 | 0.656 | 0.597 | 0.901 | 1 | 0.383
